From PubChem BioAssay AID449764 (Southern Research Specialized Biocontainment Screening …, 2010)

Tested on: Mycobacterium tuberculosis H37Rv growth inhibition, no glycerol
Test: Confirmatory growth inhibition assay, Mycobacterium tuberculosis H37Rv, absence of glycerol (AID 449764);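 also: growth read after 7 days of incubation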
Conditions: for IC90: measured here: IC90 growth inhibition

Structure (SMILES) | IC50 [µM] | IC90 [µM]
CCOc1ccc(C2c3[nH]c4ccccc4c3C[C@H]3C(=O)N(C4CCN(Cc5ccccc5)CC4)CC(=O)N23)cc1OC (stereo partly specified) | 23.7 | > 100
CCn1c(=O)c(CCC(=O)N2CCN(c3ccccn3)CC2)c(C)c2c(C)nn(-c3cccc(C)c3)c21 | 21.8 | > 100
COc1cc(/C=N/NC(=O)COc2ccc(C)cc2)ccc1OC(=O)c1cccs1 | 25.5 | 30.1
CCOC(=O)c1cc(-c2csc(Nc3c(C)cc(C)cc3C)n2)on1 | 1.09 | 1.62
Cc1ccc(C(=O)/C=C/C(=O)c2ccc(C)cc2)cc1 | 4.34 | 5.87
O=C(Nc1cc(C(F)(F)F)ccc1-n1cncn1)c1ccc([N+](=O)[O-])o1 | 37 | 54.2
Cc1c(CN(C)C)c2c(n1Cc1ccccc1)C(=O)c1ccc(Br)cc1-2 | 24 | 27.8
O=C(Nc1cccc(-c2csc(Nc3ccc(Cl)cc3)n2)c1)c1cccc(C(F)(F)F)c1 | 43.8 | > 100
CCc1cccc2c(=O)c(C(=O)N3CCOCC3)c[nH]c12 | 15.3 | 22.9
COc1ccc(C(=O)C2CCCN(C3CSCCSC3)C2)c(C)c1 (stereo unspecified) | 33.5 | 44.9
O=C(CCN1C(=O)/C(=C/c2ccccc2)SC1=S)Nc1ccccn1 | – | > 100
CO/N=C(\Cn1ncc(N2CCCC2)c(Cl)c1=O)c1ccc(Cl)cc1 | 23.7 | 26.9
CC(=O)Oc1ccc(/C=N\NC(=O)c2cc3c(ccc4ccccc43)o2)cc1 | – | > 100
COC(=O)[C@H](CC(C)C)NC(=O)c1cc2c(cn1)[nH]c1ccccc12 | 19.9 | 39.8
CN(C)CCCN1c2ccccc2Sc2ccc(Cl)cc21 | 46.6 | 60
CCN1CCN(Cc2ccc(NC(=O)c3ccc(C)c(/C=C/c4cnc(Nc5cc(N6CCNCC6)nc(C)n5)cn4)c3)cc2C(F)(F)F)CC1 | 66.6 | 89.8
CCCc1ccc2oc(C(=O)N(C)Cc3nccs3)c(C)c2c1 | 45 | 68.3

Structure (SMILES) | IC50 [µM] | IC90 [µM]
O=C(/C=C/c1ccc(O)c([N+](=O)[O-])c1)c1ccc2ccccc2c1 | 24 | > 100
CN(C(=O)c1cccc(Nc2ccc(-c3ccc4c(c3)OCCO4)nn2)c1)C1CCCCC1 | 69.2 | > 100
CCCOC(=O)CSc1nc(N2CCOCC2)c2c(c1C#N)CC(C)(C)OC2 | 23.9 | 42.5
ClCc1nc2ccccc2c2ccccc12 | 20.6 | 28.4
C#CCn1c(=NC(=O)c2cc(Cl)sc2Cl)sc2cc(S(N)(=O)=O)ccc21 | 12 | 34.1
Cc1cccc(C2=N/C(=C\c3cccs3)C(=O)O2)c1 | 7.65 | > 100
O=[N+]([O-])c1ccc(C2CC(c3ccccc3)=Nc3ccccc3S2)cc1 (stereo unspecified) | 6.28 | 7.31
CCOC(=O)CSc1nnc(SCCN2C(=O)c3ccccc3C2=O)s1 | 8.73 | 22.4
CCCCn1nc(C(=O)N[C@@H](CCSC)c2nc3ccccc3[nH]2)c2ccccc2c1=O | 46.9 | > 100
Cn1nc(C(F)(F)F)c2cc(NC(=O)OCC(C)(C)C)sc21 | 22.8 | 43.1
FC(F)(F)c1cc(CO[C@@H]2CCCN[C@@H]2c2ccccc2)cc(C(F)(F)F)c1 | 27.4 | 38.2
COc1cc(C)ccc1S(=O)(=O)N1CCN(C23CC4CC(CC(C4)C2)C3)CC1 | 46.5 | 51.1
COc1ccc(C(=O)Cn2nc(CNc3ccc(Br)cc3)[n+]3c2CCCCC3)cc1 | 12.3 | 14.1
O=C(Nc1ccc(C2=NCCN2)cc1)c1ccc(Cl)c(C(=O)Nc2ccc(C3=NCCN3)cc2)c1 | 22.7 | 25.4
CCOc1ccc(-c2cnc(NCc3cccc4ccccc34)n2CCOC)cc1 | 7.03 | 11
CCc1ccc(-c2nn(-c3ccccc3)cc2CSC(=N)N)cc1 | 16.5 | 20.4
Cc1c(C(=O)Nc2nc3ccccc3[nH]2)oc2c(Cl)cccc12 | 80.4 | > 100
